Assay results reported in patent US6846664B2, “Process for the preparation of protease inhibitor using novel alkalothermophilic bacillus sp” (priority 2000, dated 2005).
Ends that are not written are not given here.

Legend:
[1] = biological target: pepsin (Homo sapiens, UniProt P0DJD8); assay: Assay of pepsin inhibition (casein substrate, pH 2.0, OD 280 nm); assay type: biochemical; conditions: purified RP-HPLC compound
Source text: In a feature of the invention, the pepsin inhibitor was selectively purified by removing the high molecular weight compounds from the culture broth by treating it with activated charcoal. The charcoal treated broth was filtered through ultrafiltration membrane and concentrated by lyophilization. The concentrated inhibitor sample was loaded onto a reverse phase-high performance liquid chromatography column using a linear gradient of acetonitrile and triflouroacetate, and the peaks were checked for the inhibitor activity. […] This compound absorbs strongly at 210 nm. The compound was collected and checked as a single purified peptide after loading onto the HPLC column. One unit of inhibitor is defined as the amount of inhibitor which inhibits the protease activity expressed in terms of decrease in optical density of 0.001 per minute.
The protease pepsin was incubated in KC1-HC1 buffer, 0.02 M, pH-2.0, containing the inhibitor in various molar ratios at 37° C. for 30 min. After incubation the residual activity was determined and compared with the controls incubated without the inhibitor.
For example—To 0.05 ml of 100 mg/ml of aqueous solution of pepsin, 0.1 ml of the inhibitor solution was added. […] Precipitated excess casein was removed by filtration after incubation for one hour and the optical density was measured at 280 nm. […]

[2] = system: Alternaria alternata; assay: Antifungal activity assay (mycelial growth / spore germination); assay type: cell-based
Source text: (§1) The fungal strains Trichoderma reesei (deposited at The National Collection for Industrial Micro-organisms, Pune India and bearing accession numbers NCIM 992, NCIM 1052- and NCIM 1186), Fusarium oxysporum (bearing accession numbers NCIM 1008, 1043, 1072), Aspergillus flavus (bearing accession numbers NCIM 535, 536, 538, 542), Aspergillus oryzae (bearing accession numbers NCIM 637, 643, 649, 1032), Fusarium moniliforme (bearing accession numbers NCIM 1099, 1100), Alternaria alternata (bearing accession numbers NCIM 887), Claviceps purpurea (bearing accession numbers NCIM 1046), Curvularia fallax (bearing accession numbers NCIM 714), Curvularia lunata (NCIM 716), Curvularia cymbopogonis (bearing accession numbers NCIM 695) and Penicillium fellatanum (bearing accession numbers NCIM 1227) were grown on potato dextrose agar slants for 7-8 days. The said fungal strains have characteristics similar to the strains deposited at American Type Culture Collection, USA and bearing accession number as under: • Trichoderma reesei NCIM 992-ATCC No.13631 • Trichoderma reesei NCIM 1052-ATCC No.24449 • Trichoderma reesei NCIM 1186-ATCC No.26921 Fungal mycelium from the freshly grown culture was inoculated at the centre of petri plates containing potato dextrose agar medium and incubated till they form small circular growth. The time period for the vegetative growth of different fungus is different. On the periphery of the advancing fungal mycelia, four filter paper discs were impregnated at equal distances, with four different concentrations of the inhibitor sample. The plates were incubated at room temperature for 24-48 h to check the crescent zone of the retarded mycelial growth. For sporulating fungus the applicants also had checked the inhibition by spore suspension method. In this method the agar slants were incubated at room temperature till they sporulate. 4 ml of sterile distilled water was added aseptically to the agar slant and the spores were scrapped by using an inoculation loop. 1 ml of this suspension was mixed with 4 ml of malt extract, glucose, yeast extract, peptone media containing 0.4% agarose and poured onto the potato dextrose agar plate. This plate was incubated at room temperature for 4-10 h. Filter paper discs were impregnated and different concentrations of the inhibitor was added onto it. The plates were further incubated at room temperature for 24-48 h and the inhibition zone against the growth was checked. […] The advantages of the Invention are
(§2) Inhibition of growth of fungi by the inhibitor was studied using inhibition assays against mycelial growth and spore germination.
(§3) For example-In case of mycelial growth inhibition assay, fungal mycelium from freshly grown culture was inoculated at the center of potato dextrose agar plate and incubated at 28° C. for 48-72 hours. Sterile filter paper discs impregnated with different concentrations of the inhibitor were placed on the periphery of the growing fungal mycelium. The plates were incubated at 28° C. and the crescent zones of the retarded mycelial growth were observed. In case of inhibition assay against spore-germination, fungal spore suspension was made in malt extract, glucose, yeast extract and peptone (MGYP) liquid medium. To the spore suspension, various concentration of the inhibitor was added. The resulting suspension was incubated at 28° C. for 24 hours. The germination of the spores in presence and absence of the inhibitor were checked under inverted microscope. The minimum inhibitory does MID of several fungal strains are given below in the Table 2.

[3] = system: Aspergillus flavus; assay: as above; assay type: cell-based
Source text: as §1, §2, §3

[4] = system: Aspergillus oryzae; assay: as above; assay type: cell-based
Source text: as §1, §2, §3

[5] = system: Fusarium moniliforme; assay: as above; assay type: cell-based; conditions: 28° C.
Source text: as §1, §2, §3

[6] = system: Fusarium oxysporum; assay: as above; assay type: cell-based
Source text: as §1, §2, §3

[7] = system: Trichoderma reesei; assay: as above; assay type: cell-based
Source text: as §1, §2, §3

[8] = system: Claviceps purpurea; assay: Mycelial growth inhibition, filter paper disc on potato dextrose agar; assay type: cell-based; conditions: Claviceps purpurea NCIM 1046; room temperature 24-48 h
Source text: as §1, with “are […]” for “are”

[9] = system: Curvularia cymbopogonis; assay: as above; assay type: cell-based; conditions: Curvularia cymbopogonis NCIM 695; room temperature 24-48 h
Source text: as §1, with “are […]” for “are”

[10] = system: Curvularia fallax; assay: as above; assay type: cell-based; conditions: Curvularia fallax NCIM 714; room temperature 24-48 h
Source text: as §1, with “are […]” for “are”

[11] = system: Curvularia lunata; assay: as above; assay type: cell-based; conditions: Curvularia lunata NCIM 716; room temperature 24-48 h
Source text: as §1, with “are […]” for “are”

pepsin, sequence (P0DJD8 63-388): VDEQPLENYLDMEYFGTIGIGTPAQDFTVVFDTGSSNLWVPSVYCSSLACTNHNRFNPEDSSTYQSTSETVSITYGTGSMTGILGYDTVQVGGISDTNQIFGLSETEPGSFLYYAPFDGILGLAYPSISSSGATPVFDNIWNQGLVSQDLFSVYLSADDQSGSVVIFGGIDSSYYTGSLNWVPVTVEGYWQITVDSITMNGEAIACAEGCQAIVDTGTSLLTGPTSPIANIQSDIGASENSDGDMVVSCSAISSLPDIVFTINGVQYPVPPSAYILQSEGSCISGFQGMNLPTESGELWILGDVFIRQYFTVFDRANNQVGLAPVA

AGKKDDDDPPE [inhibitor]
inhibition against pepsin (RP-HPLC peak) [1]: showed the inhibition
inhibition of mycelial growth ([2]; Altemaria alternata NCIM 887, room temperature 24-48 h): strongly inhibit
MID (minimum inhibitory dose) ([2]; Alternaria alternata, 28° C.): 0.582 mg
inhibition of mycelial growth ([3]; Aspergillus flavus NCIM 535, 542, room temperature 24-48 h): strongly inhibit
MID (minimum inhibitory dose) ([3]; Aspergillus flavus, 28° C.): 0.817 mg
inhibition of mycelial growth ([4]; Aspergillus oryzae NCIM 637, 643, room temperature 24-48 h): strongly inhibit
MID (minimum inhibitory dose) ([4]; Aspergillus oryzae, 28° C.): 1.147 mg
MID (minimum inhibitory dose) [5]: 1.840 mg
inhibition of mycelial growth ([6]; Fusarium oxysporum NCIM 1008, 1072, room temperature 24-48 h): strongly inhibit
MID (minimum inhibitory dose) ([6]; Fusarium oxysporum, 28° C.): 2.300 mg
inhibition of mycelial growth ([7]; Trichoderma reesei NCIM 992, 1052, 1186, room temperature 24-48 h): strongly inhibit
MID (minimum inhibitory dose) ([7]; Trichoderma reesei, 28° C.): 0.292 mg
inhibition of mycelial growth [8]: strongly inhibit
inhibition of mycelial growth [9]: strongly inhibit
inhibition of mycelial growth [10]: strongly inhibit
inhibition of mycelial growth [11]: strongly inhibit
